SMILES strings stand for the structures.

Experimental findings from US3974184A, “Microbial production of certain isoflavones” (Zaidan Hojin Biseibutsu Kagaku Kenkyu Kai, priority 1973, dated 1976) are described below.

For data set [1], the system named is tyrosine hydroxylase. In words: Inhibition of tyrosine hydroxylase. The settings on record: at 100 .nu./cc. The format is biochemical.
Data set [2] concerns the target T1, dopamin-β-hydroxylase (Bos taurus, UniProt P15101).
T1 sequence (P15101 1-610): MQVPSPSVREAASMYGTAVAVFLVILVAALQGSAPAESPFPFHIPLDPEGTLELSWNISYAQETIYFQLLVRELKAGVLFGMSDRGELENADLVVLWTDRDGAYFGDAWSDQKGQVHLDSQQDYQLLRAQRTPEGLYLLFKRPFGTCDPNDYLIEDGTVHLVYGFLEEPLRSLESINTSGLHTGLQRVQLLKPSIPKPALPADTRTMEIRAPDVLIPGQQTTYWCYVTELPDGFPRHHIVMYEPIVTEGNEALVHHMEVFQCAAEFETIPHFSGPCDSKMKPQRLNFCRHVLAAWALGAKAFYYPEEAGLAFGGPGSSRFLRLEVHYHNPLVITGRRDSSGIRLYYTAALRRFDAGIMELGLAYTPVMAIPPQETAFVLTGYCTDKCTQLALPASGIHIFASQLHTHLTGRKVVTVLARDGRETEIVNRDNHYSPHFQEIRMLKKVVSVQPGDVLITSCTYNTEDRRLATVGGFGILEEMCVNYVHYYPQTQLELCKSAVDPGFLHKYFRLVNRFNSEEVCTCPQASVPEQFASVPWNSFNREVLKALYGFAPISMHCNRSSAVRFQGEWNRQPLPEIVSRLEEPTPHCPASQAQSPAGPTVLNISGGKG
The data set can be described thus: Inhibition of dopamin-β-hydroxylase. The data set is classed as biochemical. The settings on record: at 100 .nu./cc.

The target of data set [3] is T2, DOPA decarboxylase (Homo sapiens, UniProt P20711).
T2 sequence (P20711 1-480): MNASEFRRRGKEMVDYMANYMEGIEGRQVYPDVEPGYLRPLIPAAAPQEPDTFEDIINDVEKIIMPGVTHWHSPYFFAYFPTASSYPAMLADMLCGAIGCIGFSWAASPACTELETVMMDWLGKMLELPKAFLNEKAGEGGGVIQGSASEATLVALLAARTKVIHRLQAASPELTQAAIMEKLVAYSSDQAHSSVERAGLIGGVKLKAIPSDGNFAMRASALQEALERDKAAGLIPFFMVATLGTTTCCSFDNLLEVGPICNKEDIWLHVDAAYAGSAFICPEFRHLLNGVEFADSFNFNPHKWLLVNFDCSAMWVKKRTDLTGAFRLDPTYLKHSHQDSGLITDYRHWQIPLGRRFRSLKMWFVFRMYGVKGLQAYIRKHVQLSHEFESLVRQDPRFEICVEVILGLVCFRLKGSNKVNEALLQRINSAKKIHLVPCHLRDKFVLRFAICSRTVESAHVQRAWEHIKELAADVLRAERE
In words: Inhibition of DOPA decarboxylase (method of Davis and Awapara). The format is biochemical. The settings on record: for inhibiting action against DOPA decarboxylase: in words; for IC50: read-out: concentration for 50% inhibition of DOPA decarboxylase (converted). From the text: It has been reported heretofore that an inhibitor against COMT delays the metabolism or rate of destruction of adrenaline, noradrenaline, etc. in the human body and, therefore, serves to prolong and promote their blood pressure elevating action. These inhibitors may also be used as curative or palliative medicines for diseases such as depression which is considered to be caused when catechol amines present in the human body are reduced in quantity. There has been much argument about etiological causes of schizophrenia. One hypothesis says that the schizophrenia is caused by the production of abnormally methylated bioamines (methylated catechol amines and serotonin) within the brain. Especially, hallucination of schizophrenia is said to be caused by abnormally methylated catechol amines (Ref. "Amines and Schizophrenia" by H. E. Himwich, S. S. Kety and J. R. Smythies, 1967, Pergamon Press, Oxford). The inhibitors of COMT may therefore be used as curative medicines for schizophrenia and for the associated hallucination. On the other hand, the anti-hemochlasis of isoflavones has been reported by Murata and Ikehata ("Agr. Biol. Chem." Vol. 32, No. 6, 1968, pp. 740-746) and the cholesterol deposition preventing action of isoflavones has been reported by G. W. Moersch, D. F. Morrow and W. A. Neuklis ("J. Med. Chem." 10(2), 1967, pp. 154-158). […] It will therefore be possible to use the compounds (I), (II) and (III) as curative medicines for diseases such as hypertension and arteriosclerosis and also as economizers in combination with DOPA for treating Parkinson's disease. […] This means that there is a possibility to use the compounds (I) and (II) as curative medicines for inflammation and allergy in man.

The subject of data set [4] is bacteria. The data set can be described thus: Inhibiting action against growth of bacteria. The format is cell-based. The settings on record: at 100 .nu./cc.
Data set [5] has as its system spontaneously hypertensive rats. In words: Blood pressure lowering action in spontaneously hypertensive rats. The data set is classed as in vivo. The settings on record: for blood pressure lowering action: abdominal cavity; for blood pressure lowering: in words. From the text: The inventors also examined the blood pressure lowering action of the compounds (I), (II) and (III) by administering them in the abdominal cavity of spontaneously hypertensive rats.

Data set [6] deals with rats. The data set can be described thus: Toxicity in rats, administration into the abdominal cavity. The format is in vivo. The settings on record: 200 mg./kg., abdominal cavity of rats, 25% aqueous dimethyl sulfoxide. From the text: Now the compounds (I), (II) and (III) will be described with respect to their biological properties.
Data set [7] is described as follows: Solubility. The data set is classed as physicochemical. An excerpt: Now the extractive purification of the compounds (I), (II) and (III) will be described. […] These compounds are extracted from the culture filtrate under acidic conditions with butanol, butyl acetate, etc. or also from the fungus solid body (mycelium) with methanol, acetone, etc. The filtrate from the mycelial extract is concentrated by distillation under diminished pressure and the concentrated liquid, after having been adjusted to be acidic, is subjected to an extraction operation with butyl acetate or butanol. The thusly extracted liquid is mixed with the solution of butyl acetate or butanol separately extracted from the culture liquid, and then concentrated to dryness under diminished pressure.

Turning to `COc1ccc(-c2coc3cc(O)c(OC)c(O)c3c2=O)cc1O` [Compound (I), 3',5,7-trihydroxy-4',6-dimethoxy-isoflavone], in data set [1], the “inhibiting action against tyrosine hydroxylase” value is reported as “no inhibiting action”. For the same molecule, the “inhibiting action against dopamin-β-hydroxylase” value in data set [2] is recorded as “no inhibiting action”. In data set [3], the “inhibiting action against DOPA decarboxylase” value was “powerful inhibiting action”. Further, the IC50 in data set [3] was 37.8 µM. The “inhibiting action against the growth of bacteria” value (shortened to “inhibiting action … of bacteria”) in data set [4] is “no inhibiting action”. For the same molecule, the “blood pressure lowering action” value in data set [5] (12.5 mg./kg., after 1 hour) was 13.6%; in data set [5] (12.5 mg./kg., after 3 hours), 10.7%; in data set [5] (12.5 mg./kg., after 6 hours) it was 15.8%; in data set [5] (12.5 mg./kg., after 24 hours) it was 7.8%; in data set [5] (50 mg./kg., after 1 hour), 20.8%; in data set [5] (50 mg./kg., after 3 hours), 16.4%. For the same molecule, the “blood pressure lowering action” value in data set [5] (50 mg./kg., after 6 hours) worked out at 35.0%; in data set [5] (50 mg./kg., after 24 hours) it was 3.8%. Besides, the blood pressure lowering entry in data set [5] was “lowered the blood pressure”. In addition, the toxicity result in data set [6] is listed as “no toxicity”. For the same molecule, the “solubility in alkaline water, methanol, ethanol and acetone” value (shortened to “solubility in alkaline water, methanol”) in data set [7] is given as “soluble”. Also, the “solubility in butanol, ethyl acetate and butyl acetate” value (from here on “solubility in butanol”) in data set [7] is “slightly soluble”.

Take `COc1ccc(-c2coc3c(OC)c(O)cc(O)c3c2=O)cc1O` [Compound (II), 3',5,7-trihydroxy-4',8-dimethoxy-isoflavone]: the “inhibiting action against tyrosine hydroxylase” value in data set [1] is reported as “no inhibiting action”. The “inhibiting action against dopamin-β-hydroxylase” value in data set [2] was “no inhibiting action”. The “inhibiting action against DOPA decarboxylase” value in data set [3] is listed as “powerful inhibiting action”. Also, the IC50 in data set [3] was 15.1 µM. Besides, in data set [4], the “inhibiting action … of bacteria” value is recorded as “no inhibiting action”. The “blood pressure lowering action” value turned out to be 21.0% in data set [5] (3.1 mg./kg., after 1 hour); 26.3% in data set [5] (3.1 mg./kg., after 3 hours); 28.0% in data set [5] (3.1 mg./kg., after 6 hours); 22.0% in data set [5] (3.1 mg./kg., after 24 hours); 13.4% in data set [5] (3.1 mg./kg., after 48 hours); 10.4% in data set [5] (12.5 mg./kg., after 1 hour). Also, the “blood pressure lowering action” value in data set [5] (12.5 mg./kg., after 3 hours) is 34.4%; in data set [5] (12.5 mg./kg., after 6 hours), 32.8%; in data set [5] (12.5 mg./kg., after 24 hours), 18.0%; in data set [5] (12.5 mg./kg., after 48 hours) it was 18.0%; in data set [5] (50 mg./kg., after 1 hour), 22.3%; in data set [5] (50 mg./kg., after 3 hours), 35.9%. Also, the “blood pressure lowering action” value in data set [5] (50 mg./kg., after 6 hours) was determined as 35.3%; in data set [5] (50 mg./kg., after 24 hours), 23.9%; in data set [5] (50 mg./kg., after 48 hours), 16.3%. Also, the blood pressure lowering result in data set [5] was “lowered the blood pressure”. Besides, the toxicity result in data set [6] is recorded as “no toxicity”. Moreover, the “solubility in alkaline water, methanol” value in data set [7] is on record as “soluble”. Besides, in data set [7], the “solubility in butanol” value is “slightly soluble”.

On to `COc1ccc(-c2coc3c(OC)c(O)c(OC)cc3c2=O)cc1O` [Compound (III), 3',7-dihydroxy-4',6,8-trimethoxy-isoflavone], for which the “inhibiting action against tyrosine hydroxylase” value in data set [1] is “no inhibiting action”. For the same molecule, in data set [2], the “inhibiting action against dopamin-β-hydroxylase” value is “no inhibiting action”. In data set [3] (at a concentration as high as 100 .nu./cc), the “inhibition of DOPA decarboxylase” value is given as “no inhibition”. Also, the “inhibiting action against DOPA decarboxylase” value in data set [3] is “no inhibiting action”. Also, in data set [4], the “inhibiting action … of bacteria” value is given as “no inhibiting action”. Further, the “blood pressure lowering action” value in data set [5] (50 mg./kg., after 1 hour) is on record as 11.9%; in data set [5] (50 mg./kg., after 3 hours), 13.0%; in data set [5] (50 mg./kg., after 6 hours), 17.3%; in data set [5] (50 mg./kg., after 24 hours) it was 7.0%; in data set [5] (50 mg./kg., after 48 hours), 3.0%. The blood pressure lowering entry in data set [5] is given as “lowered the blood pressure”. Besides, in data set [6], the toxicity entry is on record as “no toxicity”. Further, in data set [7], the “solubility in alkaline water, methanol” value is reported as “soluble”. Also, in data set [7], the “solubility in butanol” value is on record as “slightly soluble”.
